Measurements taken from US20260062443A1 (ALEXION PHARMACEUTICALS, INC., priority 2022, published 2026).
pIC50: −log10 of the molar value.

Biological target: T1, Human complement C1s enzyme (Homo sapiens, UniProt P09871)
T1 sequence (P09871 438-688 limits assumed): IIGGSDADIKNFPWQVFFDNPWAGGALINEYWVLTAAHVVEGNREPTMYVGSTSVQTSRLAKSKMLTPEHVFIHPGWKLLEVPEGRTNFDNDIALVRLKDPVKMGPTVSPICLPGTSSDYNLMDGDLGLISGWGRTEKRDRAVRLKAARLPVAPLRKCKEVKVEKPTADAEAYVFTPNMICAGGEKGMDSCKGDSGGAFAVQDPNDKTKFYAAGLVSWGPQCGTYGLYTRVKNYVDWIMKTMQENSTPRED
T1 sequence (P09871 16-437 partner limits assumed): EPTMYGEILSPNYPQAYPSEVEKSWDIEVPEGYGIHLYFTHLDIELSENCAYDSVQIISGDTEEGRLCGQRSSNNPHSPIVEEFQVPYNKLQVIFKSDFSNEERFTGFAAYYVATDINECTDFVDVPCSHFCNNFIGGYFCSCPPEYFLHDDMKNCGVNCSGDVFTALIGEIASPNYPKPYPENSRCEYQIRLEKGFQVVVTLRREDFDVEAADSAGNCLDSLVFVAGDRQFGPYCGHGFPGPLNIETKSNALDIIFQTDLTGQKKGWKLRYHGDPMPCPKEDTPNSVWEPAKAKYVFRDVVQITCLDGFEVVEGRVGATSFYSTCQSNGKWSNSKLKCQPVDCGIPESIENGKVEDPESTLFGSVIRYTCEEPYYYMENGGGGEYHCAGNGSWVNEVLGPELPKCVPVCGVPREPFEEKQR
Assay: Human C1s enzyme assay
Assay type: biochemical
Settings: human complement C1s enzyme 1.16 nM, substrate Z-L-Lys-SBzl 100 μM, 5 min preincubation; read-out: IC50 (Stars), C1s Inhibiting Activity
Summary of the method: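 IC50 from nonlinear regression of reaction rates versus compound concentration, with rates taken from A405 recorded at 30 s intervals over 30 min after adding 100 μM Z-L-Lys-SBzl plus 100 μM DTNB. Enzyme was human C1s purified from serum, 1.16 nM, given 5 min compound preincubation at room temperature, pH 7.5 Tris/1 M NaCl.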

COC[C@H]1C[C@@H](C(=O)NCc2cc3cnccc3[nH]2)N(C(=O)CNC(=O)c2cccc(Oc3ccc(C)cc3F)c2)C1 [Compound 367, (2S,4S)-N-((1H-pyrrolo[3,2-c]pyridin-2-yl)methyl)-1-((3-(2-fluoro-4-methylphenoxy)benzoyl)glycyl)-4-(methoxymethyl)pyrrolidine-2-carboxamide]
pIC50: > 7.00

O=C(NCC(=O)N1C[C@H](OC(F)F)C[C@H]1C(=O)NCc1cc2cnccn2c1)c1ccc2c(c1)Oc1ccccc1S2 [Compound 266, (2S,4R)-4-(difluoromethoxy)-1-((phenoxathiine-3-carbonyl)glycyl)-N-(pyrrolo[1,2-a]pyrazin-7-ylmethyl)pyrrolidine-2-carboxamide]
pIC50: > 7.00

CC(C)c1ccc(Oc2cccc(C(=O)NCC(=O)N3C[C@H](OC(F)F)C[C@H]3C(=O)NCc3cc4cnccc4[nH]3)c2)cc1 [Compound 215, (2S,4R)-N-((1H-pyrrolo[3,2-c]pyridin-2-yl)methyl)-4-(difluoromethoxy)-1-((3-(4-isopropylphenoxy)benzoyl)glycyl)pyrrolidine-2-carboxamide]
pIC50: > 7.00

Cc1ccc(Oc2cccc(C(=O)NCC(=O)N3C[C@@](F)(CF)C[C@H]3C(=O)NCc3cc4cnccc4[nH]3)c2)c(F)c1 [Compound 319, (2S,4R)-N-((1H-pyrrolo[3,2-c]pyridin-2-yl)methyl)-4-fluoro-1-((3-(2-fluoro-4-methylphenoxy)benzoyl)glycyl)-4-(fluoromethyl) pyrrolidine-2-carboxamide]
pIC50: > 7.00

O=C(NCC(=O)N1C[C@H](OC(F)F)C[C@H]1C(=O)NCc1ccc2[nH]ccc2c1)c1ccc2c(c1)Oc1ccccc1S2 [Compound 195, (2S,4R)-N-((1H-indol-5-yl)methyl)-4-(difluoromethoxy)-1-((phenoxathiine-3-carbonyl)glycyl)pyrrolidine-2-carboxamide]
pIC50: < 6.00

O=C(NCC(=O)N1C[C@H](OC(F)F)C[C@H]1C(=O)NCc1cc2cnccc2[nH]1)c1cccc(Oc2ccccc2F)c1 [Compound 299, (2S,4R)-N-((1H-pyrrolo[3,2-c]pyridin-2-yl)methyl)-4-(difluoromethoxy)-1-((3-(2-fluorophenoxy)benzoyl)glycyl) pyrrolidine-2-carboxamide]
pIC50: > 7.00

C[C@@]12C[C@@H]1N(C(=O)CNC(=O)c1ccc(Oc3ccccc3)cc1)[C@H](C(=O)NCc1cccc(Cl)c1Cl)C2 [Compound 13, (1S,3S,5S)-N-(2,3-dichlorobenzyl)-5-methyl-2-((4-phenoxybenzoyl)glycyl)-2-azabicyclo[3.1.0]hexane-3-carboxamide]
pIC50: < 6.00

O=C(NCC(=O)N1C[C@H](OC(F)F)C[C@H]1C(=O)NCc1cc2cnccc2s1)c1ccc2c(c1)Oc1ccccc1S2 [Compound 141, (2S,4R)-4-(difluoromethoxy)-1-((phenoxathiine-3-carbonyl)glycyl)-N-(thieno[3,2-c]pyridin-2-ylmethyl)pyrrolidine-2-carboxamide]
pIC50: > 7.00

O=C(NCC(=O)N1C[C@H](OC(F)F)C[C@H]1C(=O)NCc1ccc2ccncc2c1)c1ccc2c(c1)Oc1ccccc1S2 [Compound 249, (2S,4R)-4-(difluoromethoxy)-N-(isoquinolin-7-ylmethyl)-1-((phenoxathiine-3-carbonyl)glycyl)pyrrolidine-2-carboxamide]
pIC50: < 6.00

Cc1ccc2c(c1)oc1ccc(C(=O)NCC(=O)N3C[C@H](OC(F)F)C[C@H]3C(=O)NCc3cc4cnccc4[nH]3)cc12 [Compound 332, (2S,4R)-N-((1H-pyrrolo[3,2-c]pyridin-2-yl)methyl)-4-(difluoromethoxy)-1-((7-methyldibenzo[b,d]furan-2-carbonyl)glycyl)pyrrolidine-2-carboxamide]
pIC50: > 7.00

Nc1nccc2ccc(CNC(=O)[C@@H]3CC4(CN3C(=O)CNC(=O)c3ccc5c(c3)Oc3ccccc3S5)OCCO4)cc12 [Compound 51, (S)-N-((1-aminoisoquinolin-7-yl)methyl)-7-((phenoxathiine-3-carbonyl)glycyl)-1,4-dioxa-7-azaspiro[4.4]nonane-8-carboxamide]
pIC50: < 6.00

O=C(NCC(=O)N1CC2(C[C@H]1C(=O)NCc1cc3cnccc3[nH]1)OCCO2)c1ccc(-c2ccccc2)cc1 [Compound 17, (S)-N-((1H-pyrrolo[3,2-c]pyridin-2-yl)methyl)-7-(([1,1′-biphenyl]-4-carbonyl)glycyl)-1,4-dioxa-7-azaspiro[4.4]nonane-8-carboxamide]
pIC50: > 7.00

Cc1ccc(Oc2ccnc(C(=O)NCC(=O)N3C[C@H](OC(F)F)C[C@H]3C(=O)NCc3cc4cnccc4[nH]3)c2)c(F)c1 [Compound 323, N-(2-((2S,4R)-2-(((1H-pyrrolo[3,2-c]pyridin-2-yl)methyl)carbamoyl)-4-(difluoromethoxy)pyrrolidin-1-yl)-2-oxoethyl)-4-(2-fluoro-4-methylphenoxy)picolinamide]
pIC50: > 7.00

O=C(NCC(=O)N1C[C@@](F)(CF)C[C@H]1C(=O)N[C@H](CO)c1cc2cnccc2[nH]1)c1ccc(Oc2ccc(F)cc2)cc1 [Compound 95, (2S,4R)-4-fluoro-4-(fluoromethyl)-1-((4-(4-fluorophenoxy)benzoyl)glycyl)-N-((S)-2-hydroxy-1-(1H-pyrrolo[3,2-c]pyridin-2-yl)ethyl)pyrrolidine-2-carboxamide]
pIC50: < 6.00

O=C(NCC(=O)N1CC2(C[C@H]1C(=O)NCc1cc3cnccc3[nH]1)OCCO2)c1cccc(Oc2ccc(F)cc2)c1 [Compound 157, (S)-N-((1H-pyrrolo[3,2-c]pyridin-2-yl)methyl)-7-((3-(4-fluorophenoxy)benzoyl)glycyl)-1,4-dioxa-7-azaspiro[4.4]nonane-8-carboxamide]
pIC50: > 7.00

O=C(NCC(=O)N1C[C@H](OC(F)F)C[C@H]1C(=O)NCc1cnc2cn[nH]c2c1)c1ccc2c(c1)Oc1ccccc1S2 [Compound 262, (2S,4R)-N-((1H-pyrazolo[4,3-b]pyridin-6-yl)methyl)-4-(difluoromethoxy)-1-((phenoxathiine-3-carbonyl)glycyl)pyrrolidine-2-carboxamide]
pIC50: < 6.00

Cc1nccc2[nH]c(CNC(=O)[C@@H]3C[C@]4(C)C[C@@H]4N3C(=O)CNC(=O)c3ccc4c(c3)Oc3ccccc3S4)cc12 [Compound 267, (1S,3S,5S)-5-methyl-N-((4-methyl-1H-pyrrolo[3,2-c]pyridin-2-yl)methyl)-2-((phenoxathiine-3-carbonyl)glycyl)-2-azabicyclo[3.1.0]hexane-3-carboxamide]
pIC50: < 6.00

O=C(NCC(=O)N1C[C@H](OC(F)F)C[C@H]1C(=O)NCc1ccc2cn[nH]c2c1)c1ccc2c(c1)Oc1ccccc1S2 [Compound 199, (2S,4R)-N-((1H-indazol-6-yl)methyl)-4-(difluoromethoxy)-1-((phenoxathiine-3-carbonyl)glycyl)pyrrolidine-2-carboxamide]
pIC50: < 6.00

C[C@@H](NC(=O)[C@@H]1C[C@@H](S(C)(=O)=O)CN1C(=O)CNC(=O)c1ccc(-c2ccccc2)cc1)c1cc2cnccc2[nH]1 [Compound 82, (2S,4R)-N-((R)-1-(1H-pyrrolo[3,2-c]pyridin-2-yl)ethyl)-1-(([1,1′-biphenyl]-4-carbonyl)glycyl)-4-(methylsulfonyl)pyrrolidine-2-carboxamide]
pIC50: 6.00 to 7.00

C[C@@H](NC(=O)[C@@H]1CC2(CCCCC2)CN1C(=O)CNC(=O)c1ccc2c(c1)Oc1ccccc1S2)c1cc2cnccc2[nH]1 [Compound 234, (S)-N-((R)-1-(1H-pyrrolo[3,2-c]pyridin-2-yl)ethyl)-2-((phenoxathiine-3-carbonyl)glycyl)-2-azaspiro[4.5]decane-3-carboxamide]
pIC50: > 7.00
